Assay results published in US8298996B2, “Low toxicity shale hydration inhibition agent and method of use” (M-I L.L.C., priority 2007, dated 2012).
Where two headings read alike, the source gives them in different places.

Columns and labels:
[1] = for 10′ Gel / Viscosity (cps) at 3 rpm / YP: after hot rolled at 150° F., about 10 ppb inhibitor in tap water; for shale inhibiting characteristics: summary of Tables 6-9
Experimental: This test procedure uses pint jars that are filled with one barrel equivalent of tap water and about 10 ppb of a shale inhibitor. Tap water was used as a control sample. […] After stirring the samples for about 30 minutes, the rheologies were measured and then the samples were heat aged overnight at about 150° F. After the samples were cooled the rheologies were measured and recorded. This procedure was carried out for each sample until all of the samples were too thick to measure.

[2] = tested on: luminescent bacteria; conditions: for EC50 (15): reduces light emission by 50% at 15 minutes at 15° C.; for toxicity results: summary of Tables 6-9

Compound	10′ Gel ([1]; 50 ppb Bentonite)	Viscosity (cps) at 3 rpm ([1]; 50 ppb Bentonite)	YP ([1]; 50 ppb Bentonite)	10′ Gel ([1]; 60 ppb Bentonite)	Viscosity (cps) at 3 rpm ([1]; 60 ppb Bentonite)	YP ([1]; 60 ppb Bentonite)	10′ Gel ([1]; 70 ppb Bentonite)	Viscosity (cps) at 3 rpm ([1]; 70 ppb Bentonite)	YP ([1]; 70 ppb Bentonite)	EC50 (15) [2]	toxicity results [2]	shale inhibiting characteristics [1]
[Cl-].[K+] [Potassium Chloride, reference compound]	26	12 cps	9	63	48 cps	45	300	143 cps	136			
Triethylamine Diethyl Sulfate	7	4 cps	6	9	4 cps	8	14	8 cps	45	100%	good	good
Triethylamine Dimethyl Sulfate [A (Triethylamine Dimethyl Sulfate)]	3	2 cps	4	4	3 cps	4	17	12 cps	48	92.16%	good	good
